# Results published in US12133908B2, “Personal care composition comprising taurine, arginine, glycine” (Colgate-Palmolive Company, priority 2015, dated 2024).
# Tests used:
# HaCaT cells = assay: in vitro migration assay (scratch gap closure) for barrier repair; type: cell-based, human; details: 24 hours incubation, taurine 0.0005% alone or with L-arginine 0.0001% and glycine 0.0001% (Example 1)
# Protocol: To determine barrier repair function of taurine combined with L-arginine and glycine, in vitro experiments are conducted using HaCaT cells. HaCaT cells are spontaneously transformed aneuploid immortal keratinocyte cell line from adult human skin and are grown until 100% confluent. After that, each well is scratched with 1000 μl tip to create the gap and washed with 1 ml of PBS twice to eliminate dead floating cells. Following that, cells are treated with 1 ml of culture media for control (untreated), Taurine (0.0005% by weight), and amino acid complex of taurine (0.0005% by weight) combined with L-arginine (0.0001% by weight) and glycine (0.0001% by weight). Then, initial measurements of gap distance are taken using microscope (OLYMPUS IX71). Next, the treated cells are incubated for 24 hours and measurements are taken again.
# The migration assay measures cell migration in order to evaluate the barrier repair.
# [1] = system: 3D EpiDerm skin models (SIT 200 skin irritation model); assay: in vitro skin irritation assay, IL-1α release by ELISA; type: cell-based
# Protocol: To measure skin irritation, in vitro experiments are conducted using 3D EpiDerm skin models (SIT 200 skin irritation model, MatTek Corporation, Ashland, MA 01721). The irritation assay measures IL-la protein released by the cells to the media to evaluate the level of skin irritation and inflammation. In vitro skin samples are treated topically with 30 μl of test compounds (taurine (1% by weight) or taurine-L-arginine-glycine complex (1% by weight) of 2:1:1 (a mixture of 0.5% taurine, 0.25% L-arginine and 0.25% glycine, by weight) for 1 hour in tissue culture incubator. To induce irritation, cells are co-treated with 0.05% SDS and the test compounds. Following the incubation, skin samples are washed with PBS and placed in a culture medium and incubated for 24 hours. Cell culture media are collected for IL-la release assay. IL-la release is analyzed by ELISA assay kit (R&D Systems, Minneapolis, MN 55413). The greater IL-la release, the greater the irritation potential. […] Samples 1-6 are evaluated in the in vitro irritation assay as described above in Example 2.
Structure (SMILES),Cell migration in 24hr (% of control) (HaCaT cells),IL-1α release (% of control) ([1]; 1% test compound co-treated with 0.05% SDS (Example 4)),"IL-1α release (% of control) ([1]; 30 μl of 1% test compound co-treated with 0.05% SDS for 1 hour, then 24 hours in medium (Example 2))",IL-1α release (% of control) ([1]; 0.05% SDS alone (Example 2)),IL-1α release (% of control) ([1]; 0.05% SDS alone (Example 4)),increase of IL-1α release ([1]; 0.05% SDS alone vs untreated (Example 2))
"NCCS(=O)(=O)O [taurine, 2-aminoethanesulfonic acid]",66 % of control,114 % of control,70 % of control,–,–,–
"CCCCCCCCCCCCOS(=O)(=O)[O-].[Na+] [SDS, sodium dodecyl sulfate]",–,–,–,120 % of control,140 % of control,20%
